According to the NIST ThermoML archive (doi:10.1016/j.jct.2016.03.026):

Assay: xn = mol fraction of the nth substance listed
Details: 273.15 K, Fluid (supercritical or subcritical phases), x1 = 0.97; for mass density: Vibrating tube method

O=C=O [carbon dioxide] + CO
Details | mass density [kg/m3]
8000 kPa | 962.72
8025 kPa | 962.8
8050 kPa | 962.97
8075 kPa | 963.13
8100 kPa | 963.21
8125 kPa | 963.38
8150 kPa | 963.54
8175 kPa | 963.7
8200 kPa | 963.78
8225 kPa | 963.95
8250 kPa | 964.11
8275 kPa | 964.23
8300 kPa | 964.35
8325 kPa | 964.52
8350 kPa | 964.68
8375 kPa | 964.76
8400 kPa | 964.93
8425 kPa | 965.04
8450 kPa | 965.19
8475 kPa | 965.34
8500 kPa | 965.5
8525 kPa | 965.6
8550 kPa | 965.74
8575 kPa | 965.91
8600 kPa | 966
8625 kPa | 966.15
8650 kPa | 966.32
8675 kPa | 966.46
8700 kPa | 966.56
8725 kPa | 966.72
8750 kPa | 966.89
8775 kPa | 966.97
8800 kPa | 967.13
8825 kPa | 967.3
8850 kPa | 967.38
8875 kPa | 967.54
8900 kPa | 967.71
8925 kPa | 967.86
8950 kPa | 967.95
8975 kPa | 968.12
9000 kPa | 968.28
9025 kPa | 968.36
9050 kPa | 968.52
9075 kPa | 968.69
9100 kPa | 968.77
9125 kPa | 968.93
9150 kPa | 969.1
9175 kPa | 969.18
9200 kPa | 969.34
9225 kPa | 969.51
9250 kPa | 969.64
9275 kPa | 969.75
9300 kPa | 969.92
9325 kPa | 970
9350 kPa | 970.16
9375 kPa | 970.32
9400 kPa | 970.45
9425 kPa | 970.57
9450 kPa | 970.67
9475 kPa | 970.81
9500 kPa | 970.97
9525 kPa | 971.14
9550 kPa | 971.22
9575 kPa | 971.39
9600 kPa | 971.55
9625 kPa | 971.63
9650 kPa | 971.74
9675 kPa | 971.88
9700 kPa | 972.04
9725 kPa | 972.2
9750 kPa | 972.29
9775 kPa | 972.43
9800 kPa | 972.53
9825 kPa | 972.69
9850 kPa | 972.82
9875 kPa | 972.94
9900 kPa | 973.1
9925 kPa | 973.18
9950 kPa | 973.35
9975 kPa | 973.43
10000 kPa | 973.59
10025 kPa | 973.69
10050 kPa | 973.84
10075 kPa | 973.99
10100 kPa | 974.08
10125 kPa | 974.24
10150 kPa | 974.34
10175 kPa | 974.49
10200 kPa | 974.57
10225 kPa | 974.73
10250 kPa | 974.82
10275 kPa | 974.98
10300 kPa | 975.11
10325 kPa | 975.22
10350 kPa | 975.36
10375 kPa | 975.47
10400 kPa | 975.63
10425 kPa | 975.71
10450 kPa | 975.88
10475 kPa | 975.96
10500 kPa | 976.12
10525 kPa | 976.2
10550 kPa | 976.37
10575 kPa | 976.45
10600 kPa | 976.61
10625 kPa | 976.69
10650 kPa | 976.86
10675 kPa | 976.94
10700 kPa | 977.1
10725 kPa | 977.18
10750 kPa | 977.35
10775 kPa | 977.48
10800 kPa | 977.59
10825 kPa | 977.76
10850 kPa | 977.84
10875 kPa | 978
10900 kPa | 978.08
10925 kPa | 978.2
10950 kPa | 978.33
10975 kPa | 978.49
11000 kPa | 978.57
11025 kPa | 978.7
11050 kPa | 978.82
11075 kPa | 978.97
11100 kPa | 979.06
11125 kPa | 979.16
11150 kPa | 979.3
11175 kPa | 979.46
11200 kPa | 979.55
11225 kPa | 979.71
11250 kPa | 979.8
11275 kPa | 979.94
11300 kPa | 980.04
11325 kPa | 980.16
11350 kPa | 980.29
11375 kPa | 980.39
11400 kPa | 980.53
11425 kPa | 980.69
11450 kPa | 980.78
11475 kPa | 980.89
11500 kPa | 981.02
11525 kPa | 981.13
11550 kPa | 981.26
11575 kPa | 981.37
11600 kPa | 981.51
11625 kPa | 981.62
11650 kPa | 981.75
11675 kPa | 981.86
11700 kPa | 982
11725 kPa | 982.08
11750 kPa | 982.24
11775 kPa | 982.36
11800 kPa | 982.49
11825 kPa | 982.57
11850 kPa | 982.74
11875 kPa | 982.81
11900 kPa | 982.98
11925 kPa | 983.06
11950 kPa | 983.22
11975 kPa | 983.3
12000 kPa | 983.47
12025 kPa | 983.55
12050 kPa | 983.69
12075 kPa | 983.79
12100 kPa | 983.94
12125 kPa | 984.04
12150 kPa | 984.12
12175 kPa | 984.29
12200 kPa | 984.37
12225 kPa | 984.53
12250 kPa | 984.61
12275 kPa | 984.74
12300 kPa | 984.86
12325 kPa | 984.94
12350 kPa | 985.1
12375 kPa | 985.18
12400 kPa | 985.35
12425 kPa | 985.43
12450 kPa | 985.59
12475 kPa | 985.67
12500 kPa | 985.78
12525 kPa | 985.92
12550 kPa | 986
12575 kPa | 986.16
12600 kPa | 986.24
12625 kPa | 986.39
12650 kPa | 986.49
12675 kPa | 986.57
12700 kPa | 986.65
12725 kPa | 986.81
12750 kPa | 986.89
12775 kPa | 987.06
12800 kPa | 987.14
12825 kPa | 987.27
12850 kPa | 987.38
12875 kPa | 987.47
12900 kPa | 987.63
12925 kPa | 987.71
12950 kPa | 987.8
12975 kPa | 987.96
13000 kPa | 988.04
13025 kPa | 988.15
13050 kPa | 988.28
13075 kPa | 988.39
13100 kPa | 988.53
13125 kPa | 988.61
13150 kPa | 988.76
13175 kPa | 988.85
13200 kPa | 988.93
13225 kPa | 989.1
13250 kPa | 989.18
13275 kPa | 989.28
13300 kPa | 989.42
13325 kPa | 989.5
13350 kPa | 989.67
13375 kPa | 989.75
13400 kPa | 989.83
13425 kPa | 989.98
13450 kPa | 990.07
13475 kPa | 990.16
13500 kPa | 990.32
13525 kPa | 990.4
13550 kPa | 990.48
13575 kPa | 990.65
13600 kPa | 990.73
13625 kPa | 990.86
13650 kPa | 990.97
13675 kPa | 991.05
13700 kPa | 991.22
13725 kPa | 991.3
13750 kPa | 991.4
13775 kPa | 991.51
13800 kPa | 991.62
13825 kPa | 991.75
13850 kPa | 991.87
13875 kPa | 991.95
13900 kPa | 992.09
13925 kPa | 992.19
13950 kPa | 992.27
13975 kPa | 992.38
14000 kPa | 992.52
14025 kPa | 992.6

Details | speed of sound [m/s]
10000 kPa, Frequency=5 MHz, Pulse-echo method | 634.7
